Reference: patent publication US20070021430A1, “Novel crystalline form of a phosphoric acid salt of a dipeptidyl peptidase-iv inhibitor” (priority 2003, published 2007)

Columns and labels:
[1] = solubility in water; type: physicochemical
[2] = solid-state stability / conversion of crystal form; type: physicochemical
Procedure: Form IV was prepared by heating the above monohydrate at 120° C. for about 2 h or by heating the monohydrate above 58° C. for about 8 h. Form IV is metastable and converts into the crystalline monohydrate slowly under ambient conditions and rapidly under high relative humidity (98%) at room temperature. Form IV can also be converted to anhydrate Form I in about 1 h at a temperature above 140° C.

SMILES: N[C@@H](CC(=O)N1CCn2c(nnc2C(F)(F)F)C1)Cc1cc(F)c(F)cc1F [Form IV, (2R)-4-oxo-4-[3-(trifluoromethyl)-5,6-dihydro[1,2,4]triazolo[4,3-a]pyrazin-7(8H)-yl]-1-(2,4,5-trifluorophenyl)butan-2-amine dihydrogenphosphate anhydrate Form IV]
- solubility in water [1]: high
- conversion into the crystalline monohydrate ([2]; ambient conditions): slowly
- conversion into the crystalline monohydrate ([2]; high relative humidity (98%) at room temperature): rapidly
- physical stability of the crystal form ([2]; solid state): metastable
- time for conversion to anhydrate Form I ([2]; temperature above 140° C.): about 1 h
